Assay results published in US12570655B2, “Cysteine covalent modifiers of AKT1 and uses thereof” (Terremoto Biosciences, Inc., priority 2023, dated 2026).
pIC50: −log10 of the molar value. Where two headings read alike, the source gives them in different places.

How the values were obtained:
Format in all cases: cell-based
AKT1 WT = target: T1, AKT1 WT (Homo sapiens, UniProt P31749); assay: Live cell AKT1 WT target engagement by NanoBRET competitive probe displacement; conditions: HEK293 cells transfected with kinase-NanoLuciferase fusion, 2 h at 37° C.
T1 construct: expressed in transfected cells; host or cells: HEK293
T1 sequence (P31749 whole entry, the tested form may be a part): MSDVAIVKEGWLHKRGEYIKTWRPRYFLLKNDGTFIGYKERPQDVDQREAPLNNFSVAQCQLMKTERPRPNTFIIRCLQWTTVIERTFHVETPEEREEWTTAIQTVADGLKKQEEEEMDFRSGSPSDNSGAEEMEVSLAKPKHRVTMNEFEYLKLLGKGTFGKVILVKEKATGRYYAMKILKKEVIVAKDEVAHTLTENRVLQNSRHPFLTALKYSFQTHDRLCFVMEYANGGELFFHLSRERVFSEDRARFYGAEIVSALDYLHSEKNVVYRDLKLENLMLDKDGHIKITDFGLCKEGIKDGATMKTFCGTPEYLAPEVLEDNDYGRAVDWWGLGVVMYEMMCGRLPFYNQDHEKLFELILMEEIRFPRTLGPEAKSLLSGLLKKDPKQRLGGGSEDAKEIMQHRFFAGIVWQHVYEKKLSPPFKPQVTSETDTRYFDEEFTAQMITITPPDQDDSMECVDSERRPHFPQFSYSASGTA
In short: (§1)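 HEK293 cells transiently expressing kinase–NanoLuc fusions overnight; treated with serial compound dilutions plus fluorescent ATP-competitive tracer at ~EC50, 2 h at 37 °C. BRET ratio E600/E460 read after substrate and extracellular luciferase inhibitor; IC50 from log(inhibitor) vs response Hill fit.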

AKT1 E17K = target: T2, AKT1 E17K (Homo sapiens, UniProt P31749, E17K); assay: Live cell AKT1 E17K target engagement by NanoBRET competitive probe displacement; conditions: HEK293 cells transfected with kinase-NanoLuciferase fusion, 2 h at 37° C.
T2 construct: expressed in transfected cells; host or cells: HEK293
T2 sequence (P31749 whole entry E17K, the tested form may be a part): as the sequence (P31749 whole entry, the tested form may be a part) above, with E17K counted along it
In short: as §1

[1] = system: LAPC4 prostate cancer cells; assay: Antiproliferative effects in LAPC4 cells (CellTiter Glo); conditions: LAPC4 cells (AKT1 E17K allele), read-out: LAPC4 proliferation IC50
In short: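 LAPC4 prostate cancer cells carrying AKT1 E17K, grown in IMDM with 12% FBS, were seeded at 1,000 cells/well and exposed to compound dilutions for 72 h. Viability was read as intracellular ATP by CellTiter Glo luminescence, and IC50 was fitted with a log(inhibitor) vs. response Hill equation.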

AKT2 = target: T3, AKT2 (Homo sapiens, UniProt P31751); assay: Live cell AKT2 target engagement by NanoBRET competitive probe displacement; conditions: HEK293 cells transfected with kinase-NanoLuciferase fusion, 2 h at 37° C.
T3 construct: expressed in transfected cells; host or cells: HEK293
T3 sequence (P31751 whole entry, the tested form may be a part): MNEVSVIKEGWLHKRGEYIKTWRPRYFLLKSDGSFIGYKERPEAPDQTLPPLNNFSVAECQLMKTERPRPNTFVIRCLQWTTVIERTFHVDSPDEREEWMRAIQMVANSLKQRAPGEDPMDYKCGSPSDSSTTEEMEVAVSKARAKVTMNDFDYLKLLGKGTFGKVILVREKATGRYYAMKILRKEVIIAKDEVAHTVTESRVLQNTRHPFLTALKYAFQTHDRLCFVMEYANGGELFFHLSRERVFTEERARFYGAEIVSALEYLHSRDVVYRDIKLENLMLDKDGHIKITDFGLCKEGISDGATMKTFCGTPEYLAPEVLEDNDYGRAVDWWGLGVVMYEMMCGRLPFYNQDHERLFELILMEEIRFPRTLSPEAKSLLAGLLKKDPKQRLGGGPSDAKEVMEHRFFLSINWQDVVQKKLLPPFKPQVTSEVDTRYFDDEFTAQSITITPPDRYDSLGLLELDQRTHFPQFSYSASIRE
In short: as §1

Row | SMILES | pIC50 (AKT1 WT) | pIC50 (AKT1 E17K) | pIC50 ([1]; 72 h) | pIC50 (AKT2) | pIC50 ([1]; Homo sapiens, LAPC4, 72 h)
1 | C=CC(=O)N1CC2(CCCC(N[C@H]3CCc4cc(-n5c(-c6cccnc6N)nc6ccc(-n7cccn7)nc65)ccc43)C2)C1 (single isomer, unassigned) [Example 78, 1-((*)-6-(((S)-5-(2-(2-aminopyridin-3-yl)-5-(1H-pyrazol-1-yl)-3H-imidazo[4,5-b]pyridin-3-yl)-2,3-dihydro-1H-inden-1-yl)amino)-2-azaspiro[3.5]nonan-2-yl)prop-2-en-1-one] | 7.66 | 7.20 |  | 6.87 | 6.67
2 | C=CC(=O)N1CC2(CCCC(N[C@H]3CCc4cc(-n5c(-c6cccnc6N)nc6ccc(-n7cccn7)nc65)ccc43)C2)C1 (single isomer, unassigned) [Example 79, 1-((*)-6-(((S)-5-(2-(2-aminopyridin-3-yl)-5-(1H-pyrazol-1-yl)-3H-imidazo[4,5-b]pyridin-3-yl)-2,3-dihydro-1H-inden-1-yl)amino)-2-azaspiro[3.5]nonan-2-yl)prop-2-en-1-one] | 7.92 | 7.85 |  | 7.57 | 7.77
3 | C=CC(=O)N1CCCC(N[C@H]2CCc3cc(-n4c(-c5cccnc5N)nc5ccc(-n6cccn6)nc54)ccc32)CC1 (single isomer, unassigned) [Example 81, 1-((*)-4-(((S)-5-(2-(2-aminopyridin-3-yl)-5-(1H-pyrazol-1-yl)-3H-imidazo[4,5-b]pyridin-3-yl)-2,3-dihydro-1H-inden-1-yl)amino)azepan-1-yl)prop-2-en-1-one] | 7.03 | < 6.00 | 5.12 | 5.92 | 
4 | C=CC(=O)N1[C@H](C)CC(N[C@H]2CCc3cc(-n4c(-c5cccnc5N)nc5ccc(-n6cccn6)nc54)ccc32)C[C@@H]1C (single isomer, unassigned) [Example 87, 1-((2S,4*,6R)-4-(((R)-5-(2-(2-aminopyridin-3-yl)-5-(1H-pyrazol-1-yl)-3H-imidazo[4,5-b]pyridin-3-yl)-2,3-dihydro-1H-inden-1-yl)amino)-2,6-dimethylpiperidin-1-yl)prop-2-en-1-one] | 7.59 | 6.78 | 6.44 | 6.24 | 

Now from value to molecule:

Row | pIC50 (AKT1 WT) | pIC50 (AKT1 E17K) | pIC50 ([1]; 72 h) | pIC50 (AKT2) | pIC50 ([1]; Homo sapiens, LAPC4, 72 h) | SMILES
5 | 7.80 | 7.12 | 6.31 | 6.54 |  | C=CC(=O)N1C[C@H]2COC[C@@H](C1)C2N[C@H]1CCc2cc(-n3c(-c4cccnc4N)nc4ccc(-n5cccn5)nc43)ccc21 (single isomer, unassigned) [Example 72, 1-((1R,5S,9*)-9-(((S)-5-(2-(2-aminopyridin-3-yl)-5-(1H-pyrazol-1-yl)-3H-imidazo[4,5-b]pyridin-3-yl)-2,3-dihydro-1H-inden-1-yl)amino)-3-oxa-7-azabicyclo[3.3.1]nonan-7-yl)prop-2-en-1-one]
6 | 7.80 | 7.72 | 7.13 | 7.06 |  | C=CC(=O)N1C[C@H]2COC[C@@H](C1)C2N[C@H]1CCc2cc(-n3c(-c4cccnc4N)nc4ccc(-n5cccn5)nc43)ccc21 (single isomer, unassigned) [Example 73, 1-((1R,5S,9*)-9-(((S)-5-(2-(2-aminopyridin-3-yl)-5-(1H-pyrazol-1-yl)-3H-imidazo[4,5-b]pyridin-3-yl)-2,3-dihydro-1H-inden-1-yl)amino)-3-oxa-7-azabicyclo[3.3.1]nonan-7-yl)prop-2-en-1-one]
7 | 7.11 | 6.61 | 6.25 | 6.19 |  | C=CC(=O)N1CCCC(N[C@H]2CCc3cc(-n4c(-c5cccnc5N)nc5ccc(-n6cccn6)nc54)ccc32)CC1 (single isomer, unassigned) [Example 82, 1-((*)-4-(((S)-5-(2-(2-aminopyridin-3-yl)-5-(1H-pyrazol-1-yl)-3H-imidazo[4,5-b]pyridin-3-yl)-2,3-dihydro-1H-inden-1-yl)amino)azepan-1-yl)prop-2-en-1-one]
